Laboratory results published in patent US10087465B2, “Trans-acting elements for intracellular delivery of nucleic acid sequences” (The United States of America, as Represented by the …, priority 2014, dated 2018).
“Also recorded” adds a separate entry of the source.

Assays:
Assay type in all cases: cell-based
HeLa pLuc705 cells [1] = experiment: Luciferase splice correction assay; conditions: for luciferase activity / internalization of the oligomer in the absence of PS-dT8[3+] (dTtaPS): no transfection element
Experimental: The efficiency of PS-dT8[3+] in the cellular uptake of polyA-tailed PNA oligomers was assessed through the luciferase splice correction assay in which the mutated intron 2 of the human β-globin gene has been inserted within the coding sequence of a luciferase reporter gene (pLuc705). The activation of a cryptic splice site in this intron leads to a defective luciferase enzyme. In the presence of a PNA oligomer complementary to the aberrant splice site, correct splicing is restored and results in an active luciferase. A concentration-dependence of splice correction activity by PS-dT8[3+]-mediated internalization of the PNA oligomer 10 in HeLa pLuc705 cells is shown in FIG. 12.
Complex formation between PNA or PMO oligomers and dTtaPS or dAtaPS: Appropriate amounts of PNA or PMO oligomers were diluted in serum-free OptiMEM™ (20 μl). dTtaPS or dAtaPS was added to the oligomer solution to achieve a final concentration that is twice that of the oligomer. After 30 min incubation at 37° C., the PNA or PMO oligomer: dTtaPS or dAtaPS complexes were stored at 4° C. for 15 minutes or until used. Stock solutions (2×) of the complexes were made by adding OptiMEM™ to appropriate volumes.
Luciferase assay protocol: HeLa pLuc 705 cells were seeded in a 96-well plate (2×10^4 cells/well) and allowed to grow at 37° C. for 18 h in 10% FBS-DMEM. The culture medium of each well was then replaced with either fresh serum-free or 20% serum-containing OptiMEM™ (50 μl) for experiments intended to be performed in serum-free or in 10% serum-containing media. A 2× solution of PNA or PMO oligomer:dTtaPS or dAtaPS complexes (50 μl) was added to the cells in order to achieve pre-determined complex concentrations, as indicated in the Figures. After a 4-hour incubation at 37° C., 20% FBS in OptiMEM™ (100 μl was added to serum-free experiments and cells were incubated for an additional 18 h at 37° C. The media was then removed by suction and the cells were mixed with a cell lysis reagent (50 μl) and agitated at ambient temperature for 10 minutes. The cell lysate (30 μl) was placed in a white 96-well plate and Bright-Glo™ reagent (20 μl) was added. Luciferase activity was measured using a microplate reader. For each well, luminescence was integrated over a period of 1 sec and recorded as relative light units (RLU). Luminescence measurements were normalized to the amount of protein present in the test sample.
Appropriate amounts of PNA/PMO oligomers were diluted in OptiMEM™ (20 μL) to achieve the concentration of 1 μM or as indicated in the Figures. PS-dT8[3+] or PS-dAs[3+] was added to the above oligomer solutions. After a 30 min incubation at 37° C., the PNA/PMO oligomer:PS-dT8[3+] or PS-dA8[3+] complexes were removed and kept at 4° C. for 15 minutes or until used. Stock solutions of the complexes were made by adding OptiMEM™ to appropriate volumes.
Luciferase Assay: Prior to performing experiments, HeLa pLuc 705 cells were seeded in a 96-well plate (2×10^4 cells/well) and allowed to grow at 37° C. for 18 h in 10% FBS DMEM. The culture medium of each well was then replaced with either fresh 50 μL serum free or 20% serum-containing OptiMEM™ for experiments intended to be performed in serum free or in 10% serum-containing media. A 2× solution of the PNA/PMO oligomer:PS-dT8[3+] or PS-dAs[3+] complexes (50 μL) was added to the cells in order to achieve a pre-determined concentration as indicated in the figures. After a 4-hour incubation at 37° C., 20% FBS in OptiMEM (100 μL) was added to serum free experiments and cells were incubated for an additional 18 h at 37° C. The media was then removed by suction and the cells were mixed with a cell lysis reagent (50 μL) and agitated at ambient temperature over a period of 10 minutes. The cell lysate (30 μL) was placed in white 96-well plate and Bright-Glow™ reagent (20 μL) was added. Luciferase activity was measured using a microplate reader. […]

HeLa pLuc705 cells [2] = experiment: Cytotoxicity study with commercial cell-counting kit (CCK-8); conditions: oligomer 1.0 μM, dTtaPS 2.0 μM; 18 h; compared to medium or absence of dTtaPS
Experimental: Flat-bottom 96-well plates were purchased from BD-Falcon. The CCK-8 Kit for cytotoxicity studies was purchased from Dojindo Molecular Technologies.
The cytotoxicity of PNA oligomer 10:dTtaPS and PMO oligomer 21:dTtaPS complexes in HeLa pLuc 705 cells was evaluated over a period of 18 h using a commercial cell-counting kit.

HeLa pLuc 705 cells [3] = experiment: Energy-dependence of the dTtaPS-assisted internalization of PNA oligomer 10; conditions: dTtaPS-mediated uptake; incubation of 1 h
Experimental: Energy-dependence of the dTtaPS-assisted internalization of PNA oligomer 10 in HeLa pLuc 705 cells: HeLa pLuc 705 cells were seeded in a 96-well plate (2×10^4 cells/well) and allowed to grow at 37° C. for 18 h in 10% FBS-DMEM. While the cell culture was maintained at 37° C. or 4° C., a 2× solution of a PNA oligomer 10:dTtaPS complex was prepared as described above. The cell culture medium was replaced with the PNA oligomer:dTtaPS complex solution to provide an oligomer and dTtaPS final concentration of […], respectively. After an incubation of 1 h at 37° C. or 4° C., the medium was removed by suction and luciferase activity was measured as described above in the Luciferase assay protocol. Luminescence measurements were normalized to the amounts of protein present in the test samples and reported as percent luminescence remaining relative to that of the experiment performed at 37° C.

HeLa pLuc 705 cells [4] = experiment: Competition assay with PS-dT8 (luciferase readout); conditions: PNA oligomer 10 1.0 μM, dTtaPS 1.0 μM, PS-dT8 1.0, 2.0 or 4.0 μM
Experimental: Competition assay: HeLa pLuc 705 cells were seeded in a 96-well plate and grown in 10% FBS-DMEM as described above. Predetermined amounts of polyA-tailed PNA oligomer 10 and octathymidilyl DNA phosphorothioate (PS-dT8) were placed in individual microfuge tubes so that the molar ratio of PNA:PS-dT8 in each tube was 1:1, 1:2 or 1:4. OptiMEM™ (20 μl) was added to each of the three tubes, which were then placed in a heating block pre-heated to 60° C. After 2 min, the tubes were removed from the heating block, allowed to cool slowly to 20° C., and then, left standing in a cold room (4° C.) for 15 min. dTtaPS was added to the mixture of oligomers of each tube to achieve a concentration that is equimolar to that of the PNA oligomer 10. After a 30 min incubation at 37° C., the PNA/PS-dT8:dTtaPS complexes were stored at 4° C. for 15 minutes or until used. […] The cells were then incubated for an additional 30 min at 37° C., whereupon luciferase activity was measured as described above in the Luciferase assay protocol. Luminescence measurements were normalized to the amounts of protein present in the test samples and reported as percent luminescence remaining relative to that of the experiment performed in the absence of PS-dT8.

Row | Substance | luciferase activity / internalization of the oligomer in the absence of PS-dT8[3+] (dTtaPS) (HeLa pLuc705 cells [1]; listed as 21) | cytotoxicity of oligomer:dTtaPS complexes (HeLa pLuc705 cells [2]) | luciferase activity / internalization upon PS-dA8[3+] (dAtaPS)-mediated delivery of PNA oligomers (HeLa pLuc705 cells [1]; PS-dA8[3+] 2.0 μM, compared with PS-dT8[3+]:10 complex, FIG. 16, listed as 10) | luciferase activity (splice correction) upon PS-dT8[3+] (dTtaPS)-assisted delivery of PNA oligomers (HeLa pLuc705 cells [1]; PS-dT8[3+] 2 μM, FIG. 12, 13, 15, listed as 10) | luciferase activity / internalization of the oligomer in the absence of PS-dT8[3+] (dTtaPS) (HeLa pLuc705 cells [1]) | decrease of luciferase activity production at 4° C. relative to 37° C. (HeLa pLuc 705 cells [3]) | decrease of luciferase activity production relative to control without PS-dT8 (HeLa pLuc 705 cells [4])
1 | PMO oligomer 21: commercial PMO, CCTCTTACCTCAGTTACA-AAAAAA, SEQ ID NO. 15 (CCTCTTACCTCAGTTACAAAAAAA; all phosphorodiamidate morpholino (PMO)) | reduced to that of the negative control oligomer 22 | did not induce significant cytotoxicity |  |  |  |  | 
2 | PNA oligomer 10: commercial PNA, H-CCTCTTACCTCAGTTACA-AAAAAA-NH2, SEQ ID NO. 4 (CCTCTTACCTCAGTTACAAAAAAA; all peptide nucleic acid (PNA); PNA with C-terminal amide) |  | did not induce significant cytotoxicity | No significant level of luciferase activity was detected; also recorded: Poor luciferase activity | induced splice correction of the pre-mRNA encoding luciferase, in a dose-dependent manner | no luciferase activity was detected | at least 50% | 
3 | octathymidilyl DNA phosphorothioate [PS-dT8] |  |  |  |  |  |  | ≤ 80%
